Data taken from ChEMBL document CHEMBL3885881, “DrugMatrix”.

Species: Rattus norvegicus
Experiment: DrugMatrix - Regimen: Daily Repeat
Format: toxicity, organism-based, Sprague-Dawley
Design: regimen Daily Repeat, gender Male, age 6-8 weeks
Settings: in vivo, po, route oral GAVAGE, vehicle 100 % WATER; for ABSOLUTE BASOPHIL / ABSOLUTE EOSINOPHIL / ABSOLUTE LYMPHOCYTE / ABSOLUTE MONOCYTE / ABSOLUTE SEGMENTED NEUTROPHIL / BASOPHIL / EOSINOPHIL / ERYTHROCYTE COUNT / HEMATOCRIT / HEMOGLOBIN / LEUKOCYTE COUNT / LYMPHOCYTE / MEAN CORPUSCULAR HEMOGLOBIN / MEAN CORPUSCULAR HEMOGLOBIN CONCENTRATION / NEUTROPHIL / NUCLEATED RED BLOOD CELLS / PLATELET COUNT: tissue Blood; for ALANINE AMINOTRANSFERASE / ALBUMIN / ALKALINE PHOSPHATASE / ASPARTATE AMINOTRANSFERASE / BLOOD UREA NITROGEN / CARBON DIOXIDE / CHLORIDE / CREATINE PHOSPHOKINASE / CREATININE / GLUCOSE / LACTATE DEHYDROGENASE / LIPASE / PHOSPHORUS / POTASSIUM / SODIUM / TOTAL BILIRUBIN / TOTAL PROTEIN / URIC ACID / CHOLESTEROL: tissue Plasma
[1] = 0 mg/kg, 72 h, dose level Control, time 3 day
[2] = 0 mg/kg, 120 h, dose level Control, time 5 day
[3] = 94 mg/kg, 72 h, dose level High, time 3 day

CN1[C@@H]2CC[C@H]1C[C@@H](OC(=O)C(CO)c1ccccc1)C2 (some centres not stated) [ATROPINE]
ABSOLUTE BASOPHIL [1]: 0 CELLS/uL | ABSOLUTE EOSINOPHIL [1]: 33.67 CELLS/uL | ABSOLUTE LYMPHOCYTE [1]: 11257.17 CELLS/uL | ABSOLUTE MONOCYTE [1]: 72.17 CELLS/uL | ABSOLUTE SEGMENTED NEUTROPHIL [1]: 1220.33 CELLS/uL | BASOPHIL [1]: 0% | EOSINOPHIL [1]: 0.33% | ERYTHROCYTE COUNT [1]: 5 x10E6/uL | HEMATOCRIT [1]: 32.62% | HEMOGLOBIN [1]: 12.83 G/DL | LEUKOCYTE COUNT [1]: 12.58 x10E3/uL | LYMPHOCYTE [1]: 89% | MEAN CORPUSCULAR HEMOGLOBIN [1]: 25.67 pg | MEAN CORPUSCULAR HEMOGLOBIN CONCENTRATION [1]: 39.35 G/DL | NEUTROPHIL [1]: 10% | NUCLEATED RED BLOOD CELLS [1]: 0 /100WBC | PLATELET COUNT [1]: 1162.5 x10E3/uL | ALANINE AMINOTRANSFERASE [1]: 45.33 u/L | ALBUMIN [1]: 3.95 G/DL | ALKALINE PHOSPHATASE [1]: 356.17 u/L | ASPARTATE AMINOTRANSFERASE [1]: 81 u/L | BLOOD UREA NITROGEN [1]: 11 mg/dL | CARBON DIOXIDE [1]: 29.83 mmol/L | CHLORIDE [1]: 97.8 MEQ/L | CREATINE PHOSPHOKINASE [1]: 211.33 u/L | CREATININE [1]: 0.11 mg/dL | GLUCOSE [1]: 164.67 mg/dL | LACTATE DEHYDROGENASE [1]: 143.17 u/L | LIPASE [1]: 10.17 u/L | PHOSPHORUS [1]: 10.88 mg/dL | POTASSIUM [1]: 6.08 MEQ/L | SODIUM [1]: 141.54 MEQ/L | TOTAL BILIRUBIN [1]: 0.23 mg/dL | TOTAL PROTEIN [1]: 5.65 G/DL | URIC ACID [1]: 1 mg/dL | ABSOLUTE BASOPHIL [2]: 0 CELLS/uL | ABSOLUTE EOSINOPHIL [2]: 48.67 CELLS/uL | ABSOLUTE LYMPHOCYTE [2]: 9267.83 CELLS/uL | ABSOLUTE MONOCYTE [2]: 194.33 CELLS/uL | ABSOLUTE SEGMENTED NEUTROPHIL [2]: 572.5 CELLS/uL | BASOPHIL [2]: 0% | EOSINOPHIL [2]: 0.33% | ERYTHROCYTE COUNT [2]: 5.41 x10E6/uL | HEMATOCRIT [2]: 36.17% | HEMOGLOBIN [2]: 13.9 G/DL | LEUKOCYTE COUNT [2]: 10.08 x10E3/uL | LYMPHOCYTE [2]: 92.17% | MEAN CORPUSCULAR HEMOGLOBIN [2]: 25.73 pg | MEAN CORPUSCULAR HEMOGLOBIN CONCENTRATION [2]: 38.45 G/DL | NEUTROPHIL [2]: 5.67% | NUCLEATED RED BLOOD CELLS [2]: 0.33 /100WBC | PLATELET COUNT [2]: 1122.33 x10E3/uL | ALANINE AMINOTRANSFERASE [2]: 52.83 u/L | ALBUMIN [2]: 4.12 G/DL | ALKALINE PHOSPHATASE [2]: 367.33 u/L | ASPARTATE AMINOTRANSFERASE [2]: 88 u/L | BLOOD UREA NITROGEN [2]: 12.67 mg/dL | CARBON DIOXIDE [2]: 33.67 mmol/L | CHLORIDE [2]: 97 MEQ/L | CHOLESTEROL [2]: 67.5 mg/dL | CREATINE PHOSPHOKINASE [2]: 358.67 u/L | CREATININE [2]: 0.14 mg/dL | GLUCOSE [2]: 152.33 mg/dL | LACTATE DEHYDROGENASE [2]: 180 u/L | LIPASE [2]: 10.5 u/L | PHOSPHORUS [2]: 10.63 mg/dL | POTASSIUM [2]: 5.99 MEQ/L | SODIUM [2]: 141.85 MEQ/L | TOTAL BILIRUBIN [2]: 0.2 mg/dL | TOTAL PROTEIN [2]: 6.18 G/DL | URIC ACID [2]: 0.52 mg/dL | ABSOLUTE BASOPHIL [3]: 0 CELLS/uL | ABSOLUTE EOSINOPHIL [3]: 0 CELLS/uL | ABSOLUTE LYMPHOCYTE [3]: 12944 CELLS/uL | ABSOLUTE MONOCYTE [3]: 33.33 CELLS/uL | ABSOLUTE SEGMENTED NEUTROPHIL [3]: 789.33 CELLS/uL | BASOPHIL [3]: 0% | EOSINOPHIL [3]: 0% | ERYTHROCYTE COUNT [3]: 5.37 x10E6/uL | HEMATOCRIT [3]: 33.77% | HEMOGLOBIN [3]: 13.4 G/DL | LEUKOCYTE COUNT [3]: 13.77 x10E3/uL | LYMPHOCYTE [3]: 93.67% | MEAN CORPUSCULAR HEMOGLOBIN [3]: 24.93 pg | MEAN CORPUSCULAR HEMOGLOBIN CONCENTRATION [3]: 39.67 G/DL | NEUTROPHIL [3]: 6% | NUCLEATED RED BLOOD CELLS [3]: 0 /100WBC | PLATELET COUNT [3]: 1031.67 x10E3/uL | ALANINE AMINOTRANSFERASE [3]: 59.33 u/L | ALBUMIN [3]: 4.03 G/DL | ALKALINE PHOSPHATASE [3]: 322.67 u/L | ASPARTATE AMINOTRANSFERASE [3]: 115 u/L | BLOOD UREA NITROGEN [3]: 11 mg/dL | CARBON DIOXIDE [3]: 26.33 mmol/L | CHLORIDE [3]: 102.5 MEQ/L | CHOLESTEROL [3]: 72.67 mg/dL | CREATINE PHOSPHOKINASE [3]: 681.33 u/L | CREATININE [3]: 0.13 mg/dL | GLUCOSE [3]: 149.67 mg/dL | LACTATE DEHYDROGENASE [3]: 237 u/L | LIPASE [3]: 10.67 u/L | PHOSPHORUS [3]: 9.43 mg/dL | POTASSIUM [3]: 5.53 MEQ/L | SODIUM [3]: 142.3 MEQ/L | TOTAL BILIRUBIN [3]: 0.3 mg/dL | TOTAL PROTEIN [3]: 5.6 G/DL | URIC ACID [3]: 1 mg/dL
